# Reference: US20060194835A1, “Compositions and methods for treating or preventing flaviviridae infections” (priority 2005, published 2006)
# B1: Interferon-γ: type II interferon (protein, UniProt P01579 24-161, looked up)
# Interferon gamma: QDPYVKEAENLKKYFNAGHSDVADNGTLFLGILKNWKEESDRKIMQSQIVSFYFKLFKNFKDDQSIQKSVETIKEDMNVKFFNSNKKKRDDFEKLTNYSVTDLNVQRKAIHELIQVMAELSPAAKTGKRKRSQMLFRG
# Columns and labels:
# [1] = test system: BVDV; assay: Protection of MDBK cells from BVDV-induced cytopathicity (CPE reduction, MTS/PMS); assay type: cell-based, bovine viral diarrhea virus; conditions: for EC50: 50% CPE reduction; for protection of MDBK cells from BVDV-induced cytopathicity (in words): at the concentrations tested
# [2] = in vitro; conditions: bovine
# [3] = Drug cytotoxicity in uninfected MDBK cells (MTS/PMS); conditions: bovine
# [4] = test system: BVDV; assay: Double combination checkerboard CPE assay, MacSynergy II and isobolograms; assay type: cell-based, bovine viral diarrhea virus; conditions: at 10 IU/mL interferon-α2b
# Description: A double combination assay was performed using MDBK cells infected with BVDV in an inhibition of cytopathic effect (CPE) assay as described in Example 2. The double drug combinations were measured by creating a “checkerboard” of drug concentrations used on cell monolayers in microtiter plates, with one drug being titrated horizontally and the other drug titrated vertically, and each double combination being tested at least twice.
# The EC50 values of a first test compound derived while in combination with a second test compound were plotted against the corresponding concentration of the second test compound to create an isobole (dose pair). All of the isoboles were plotted in an isobologram to determine the presence of synergy, antagonism or additivity for the combined test compounds. […] The line connecting the monotherapy EC50 values represents the theoretical additivity effect values for the two compounds.
# In addition to generating isobolograms, the checkerboard data was imported into MacSynergy™ II software to graph the observed synergy (or additive or antagonism) volumes for the double combinations tested. Briefly, the calculated additive interactions were subtracted from the experimentally determined values to reveal the corresponding drug concentrations at which a synergistic (indicated by positive % values) or antagonistic (indicated by negative % values) effect is observed. The greater the positive percent volume observed, the greater the synergy between the two compounds. […] In contrast, any value about or less than −25 μM^2% or μM(IU/mL) % is indicative of a significant antagonistic effect. The data presented in Table 5 represent volumes of synergy or antagonism with 95% confidence. The confidence level was calculated using a Bonferroni adjustment as a conservative estimate of significance to statistically evaluate the data.
# [5] = test system: BVDV; assay: Triple combination checkerboard CPE assay (celgosivir or castanospermine + interferon-α2b + ribavirin), MacSynergy II; assay type: cell-based, bovine viral diarrhea virus; conditions: for EC50: read-out: Average Castanospermine EC50
# Description: Each double or triple combination was performed twice. The combination efficacy data were analyzed using the MacSynergy™ II software program as described herein.
# Each double or triple combination was performed twice. The combination efficacy data were analyzed using the MacSynergy™ II software program as described herein. The EC50 for each of celgosivir and castanospermine was calculated from the triple combination studies described in Example 6.
# Each double or triple combination was performed twice. The combination efficacy data were analyzed using the MacSynergy™ software program as described herein. The EC50 for interferon-α2b was calculated from the triple combination studies described in Example 6.
# [6] = test system: MDBK cells; assay: Drug cytotoxicity in uninfected MDBK cells (MTS/PMS); conditions: uninfected MDBK cells
# [7] = test system: BVDV strain NADL; assay: Inhibition of viral release from BVDV-infected MDBK cells (plaque titer); conditions: MOI = 1; for EC50: inhibits 50% of viral release; for EC50 / EC90: 24 hours; for EC90: inhibits 90% of viral release
# [8] = test system: MDBK cells; assay: Cytotoxicity of test compound in MDBK cells in the absence of viral infection (Example 1); conditions: absence of viral infection
# [9] = Bovine viral diarrhea virus isolates and strains, MDBK, MOI 0.05
molecule,measurement,setting,value
"O=C(N[C@@H](Cc1c[nH]c2ccccc12)C(=O)O)c1ccc2ccn(Cc3ccccc3)c2c1 [2-BAIP, (L)-2-[(1-Benzyl-1H-indole-6-carbonyl)-amino]-3-(1H-indol-3-yl)-propionic acid, reference compound]",EC50,[1]; [9],> 50 µM
same,protection of MDBK cells from BVDV-induced cytopathicity (in words),[1],do not protect
same,CC50,[2],> 50 µM
"NC12CC3CC(CC(C3)C1)C2 [Amantadine, amantadine, reference compound]",EC50,[1]; MOI 0.05,357 µM
same,EC50,[1]; [9],476 µM
same,CC50,[3],> 1000 µM
"O[C@H]1[C@H](O)[C@@H](O)CN2CC[C@H](O)[C@H]12 [Castanospermine, [1S-(1α,6β,7α,8β,8aβ)]-octahydro-1,6,7,8-indolizinetetrol]",EC50,"[1]; MOI 0.01, read-out: EC50",62 ± 15 µM
same,fold reduction of EC50 of castanospermine,[4],more than 7 fold
same,EC50,"[5]; Ribavirin 0 μM, Interferon-α2b 0 IU/mL, listed as castanospermine",~52 µM
same,EC50,"[5]; Ribavirin 0 μM, Interferon-α2b 0 IU/mL",52.2 ± 9.5 µM
same,EC50,"[5]; Ribavirin 0 μM, Interferon-α2b 0.7 IU/mL",39 ± 13.4 µM
same,EC50,"[5]; Ribavirin 0 μM, Interferon-α2b 2.2 IU/mL",18.9 ± 2.1 µM
same,EC50,"[5]; Ribavirin 0 μM, Interferon-α2b 6.7 IU/mL",11.9 ± 2.5 µM
same,EC50,"[5]; Ribavirin 0 μM, Interferon-α2b 20 IU/mL",< 1.3 µM
same,EC50,"[5]; Ribavirin 0.12 μM, Interferon-α2b 0.7 IU/mL",34.3 ± 3.4 µM
same,EC50,"[5]; Ribavirin 0.12 μM, Interferon-α2b 2.2 IU/mL",23.4 ± 2.4 µM
same,EC50,"[5]; Ribavirin 0.12 μM, Interferon-α2b 6.7 IU/mL",9.7 ± 4.8 µM
same,EC50,"[5]; Ribavirin 0.12 μM, Interferon-α2b 20 IU/mL",< 1.4 µM
same,EC50,"[5]; Ribavirin 0.37 μM, Interferon-α2b 0.7 IU/mL",27.7 ± 6.3 µM
same,EC50,"[5]; Ribavirin 0.37 μM, Interferon-α2b 2.2 IU/mL",19.7 ± 5.2 µM
same,EC50,"[5]; Ribavirin 0.37 μM, Interferon-α2b 6.7 IU/mL",6.5 ± 7.5 µM
same,EC50,"[5]; Ribavirin 0.37 μM, Interferon-α2b 20 IU/mL",< 1.5 µM
same,EC50,"[5]; Ribavirin 1.1 μM, Interferon-α2b 0.7 IU/mL",14 ± 4.5 µM
same,EC50,"[5]; Ribavirin 1.1 μM, Interferon-α2b 2.2 IU/mL",6.9 ± 1 µM
same,EC50,"[5]; Ribavirin 1.1 μM, Interferon-α2b 6.7 IU/mL",< 1.2 µM
same,EC50,"[5]; Ribavirin 1.1 μM, Interferon-α2b 20 IU/mL",< 1.2 µM
same,EC50,"[5]; Ribavirin 3.3 μM, Interferon-α2b 0.7 IU/mL",< 1.2 µM
same,EC50,"[5]; Ribavirin 3.3 μM, Interferon-α2b 2.2 IU/mL",< 1.2 µM
same,EC50,"[5]; Ribavirin 3.3 μM, Interferon-α2b 6.7 IU/mL",< 1.2 µM
same,EC50,"[5]; Ribavirin 3.3 μM, Interferon-α2b 20 IU/mL",< 1.2 µM
same,dose-dependent reduction in EC50,[5]; upon the addition of increasing concentrations of interferon-α2b,up to 52 fold
same,CC50,[6],> 1000 µM
same,"TI (Therapeutic Index, CC50/EC50)",[7],>100
same,EC50,[7],19.4 ± 8.3 µM
same,EC90,[7],89 ± 21 µM
same,CC50,[8],> 2000 µM
"CCCCN1C[C@H](O)[C@@H](O)[C@H](O)[C@H]1CO [NB-DNJ, N-butyldeoxynojirimycin, reference compound]",EC50,"[1]; MOI 0.05, read-out: EC50",459 µM
same,CC50,[6],> 500 µM
"C[C@@]1(O)[C@H](O)[C@@H](CO)O[C@H]1n1ccc(N)nc1=O [NM-107, 2′-C-methyl cytidine, reference compound]",EC50,"[1]; Bovine viral diarrhea virus isolates and strains, MDBK, MOI 0.01",2.1 ± 0.5 µM
same,CC50,[2],228 µM
Interferon-α2b,EC50,[1]; MOI 0.01,19.4 ± 6 IU/mL
same,Average Interferon-α2b EC50,[5]; Castanospermine added 0 μM,16 IU/mL
same,Average Interferon-α2b EC50,[5]; Castanospermine added 1.2 μM,18 IU/mL
same,Average Interferon-α2b EC50,[5]; Castanospermine added 3.7 μM,13 IU/mL
same,Average Interferon-α2b EC50,[5]; Castanospermine added 11 μM,7 IU/mL
same,Average Interferon-α2b EC50,[5]; Castanospermine added 33 μM,1 IU/mL
same,Average Interferon-α2b EC50,[5]; Celgosivir added 0 μM,19 IU/mL
same,Average Interferon-α2b EC50,[5]; Celgosivir added 0.25 μM,21 IU/mL
same,Average Interferon-α2b EC50,[5]; Celgosivir added 0.74 μM,14 IU/mL
same,Average Interferon-α2b EC50,[5]; Celgosivir added 2.2 μM,5 IU/mL
same,Average Interferon-α2b EC50,[5]; Celgosivir added 6.7 μM,<1 IU/mL
same,EC50 of interferon-α2b,[5]; at increased concentration of castanospermine or celgosivir,less than 1 IU/mL
same,EC50 of interferon-α2b,[5]; without added castanospermine or celgosivir,about 20 IU/mL
same,CC50,[6],>300 IU/mL
same,"TI (Therapeutic Index, CC50/EC50)",[7],>200
same,EC50,[7],8.0 ± 6.8 IU/mL
same,EC90,[7],114 ± 92 IU/mL
same,CC50,[8],>1000 IU/mL
"Interferon-ω: type I interferon, interferon-ω (Cedarlane Laboratories)",EC50,[1]; MOI 0.01,37 ± 1.4 IU/mL
same,CC50,[6],>1000 IU/mL
Peginterferon-α2a,EC50,[1]; MOI 0.01,16.6 ± 11 IU/mL
same,CC50,[6],>1000 IU/mL
B1,EC50,[1]; MOI 0.01,>1000 IU/mL
same,protection of MDBK cells from BVDV-induced cytopathicity (in words),[1],do not protect
same,CC50,[6],>1000 IU/mL
